Measurements published in patent US10206909B2, “3-(1H-pyrrolo[2,3-B]pyridin-2-yl)-1H-pyrazolo[4,3-B]pyridines and therapeutic uses thereof” (Samumed, LLC, priority 2015, dated 2019).

How the values were obtained:
[1] = test system: primary human fibroblasts derived from IPF patients (LL29 cells); test: Inhibition of the fibrotic process: αSMA staining in TGF-β1 treated fibroblasts; type: cell-based; details: Fibroblast; for EC50: 96 h, LL29 cells, TGF-β1 20 ng/mL, 4 days, % αSMA positive cells; for inhibition at 10 µM: given where EC50 >10 μM, LL29, αSMA, read-out: percent inhibition at 10 μM
Text: Representative compounds were screened using primary human fibroblasts (derived from IPF patients) treated with TGF-β1 to determine their ability to inhibit the fibrotic process.
Human Fibroblast Cell Culture: Primary human fibroblasts derived from IPF patients (LL29 cells) [^1Xiaoqiu Liu, et. al., “Fibrotic Lung Fibroblasts Show Blunted Inhibition by cAMP Due to Deficient cAMP Response Element-Binding Protein Phosphorylation”, Journal of Pharmacology and Experimental Therapeutics (2005), 315(2), 678-687; ^2Watts, K. L., et. al., “RhoA signaling modulates cyclin D1 expression in human lung fibroblasts; implications for idiopathic pulmonary fibrosis”, Respiratory Research (2006), 7(1), 88] were obtained from American Type Culture Collection (ATCC) and expanded in F12 medium supplemented with 15% Fetal Bovine Serum and Penicillin/Streptomycin.
Compound Screening: Each compound was dissolved in DMSO as a 10 mM stock and used to prepare compound source plates. Serial dilution (1:2, 11-point dose-response curves from 10 μM to […]) and compound transfer was performed using the ECHO 550 (Labcyte, Sunnyvale, Calif.) into 384-well clear bottom assay plates (Greiner Bio-One) with appropriate DMSO backfill for a final DMSO concentration of 0.1%. LL29 cells are plated at 1,500 cells/well in 80 μL/well F12 medium supplemented with 1% Fetal Bovine Serum. One hour after addition of the cells, TGF-β1 (Peprotech; 20 ng/mL) was added to the plates to induce fibrosis (ref. 1 and 2 above). Wells treated with TGF-β1 and containing DMSO were used as controls. Cells were incubated at 37° C. and 5% CO2 for 4 days. Following incubation for 4 days, SYTOX green nucleic acid stain (Life Technologies [Thermo Fisher Scientific]) was added to the wells at a final concentration of 1 μM and incubated at room temperature for 30 min. Cells were then fixed using 4% formaldehyde (Electron Microscopy Sciences), washed 3 times with PBS followed by blocking and permeabilization using 3% Bovine Serum Albumin (BSA; Sigma) and 0.3% Triton X-100 (Sigma) in PBS. Cells were then stained with antibody specific to α-smooth muscle actin (αSMA; Abcam) (ref. 1 and 2 above) in 3% Bovine Serum Albumin (BSA; Sigma) and 0.3% Triton X-100 (Sigma) in PBS, and incubated overnight at 4° C. Cells were then washed 3 times with PBS, followed by incubation with Alexa Flor-647 conjugated secondary antibody (Life Technologies [Thermo Fisher Scientific]) and DAPI at room temperature for 1 hour. Cells were then washed 3 times with PBS and plates were sealed for imaging. αSMA staining was imaged by excitation at 630 nm and emission at 665 nm and quantified using the Compartmental Analysis program on the CellInsight CX5 (Thermo Scientific). Dead or apoptotic cells were excluded from analysis based on positive SYTOX green staining. % of total cells positive for αSMA were counted in each well and normalized to the average of 11 wells treated with TGF-β1 on the same plate using Dotmatics' Studies Software. The normalized averages (fold change over untreated) of 3 replicate wells for each compound concentration were used to create dose-responses curves and EC50 values were calculated using non-linear regression curve fit in the Dotmatics' Studies Software. For EC50 of >10 μM, the percent inhibition at 10 μM is provided.

IL-6 (THP-1 cells) = test: IL-6 inhibition in LPS-stimulated THP-1 cells (HTRF); type: cell-based; details: Homo sapiens; for EC50: THP-1 cells, LPS 500 ng/mL, 22 hours, IL6 HTRF; for inhibition at 10 µM: given where EC50 >10 μM, THP-1, IL6, read-out: percent inhibition at 10 μM
Procedure: Human Monocyte Cell Culture: Human monocyte cell line (THP-1 cells; Catalog # TIB-202, ATCC, Manassas, Va.) were cultured in Roswell Park Memorial Institute (RPMI) 1640 Medium (Catalog #21870-100, Buffalo, N.Y.) with 1% L-glutamine, 1% HEPES, 1% Sodium Pyruvate, 2% Sodium Bicarbonate supplemented with 100 units/mL penicillin, 50 μg/mL streptomycin, 2-mercaptoethanol (0.05 mM) [basal medium] and 10% fetal bovine serum (Catalog #16140089, Life Technologies, Carlsbad, Calif.) at 37° C. and 5% CO2.
Compound Screening: THP-1 cells were cultured in basal media with 1% FBS for 24 hours before the start of the assay. Each compound was dissolved in DMSO as a 10 mM stock and used to prepare compound source plates. Serial dilution (1:3, 10-point dose-response curves starting from 10 μM) and compound transfer was performed using the ECHO 550 (Labcyte, Sunnyvale, Calif.) into 384-well white low volume assay plates (Greiner Bio-One) with appropriate DMSO backfill for a final DMSO concentration of 0.1%. THP-1 cells were plated at 5000 cells/well in the 384-well plates and incubated at 37° C. for 2 h. 500 ng/mL of LPS was added after 2 hours and cells were incubated for another 22 hours at 37° C. Plates were spun in a centrifuge for 1 minute at […] and a mixture of anti-IL6 XL665, and anti-IL6 Cryptate diluted in reconstitution buffer (Cisbio Inc.) was added to each well. Following incubation for 3 hrs at room temperature, Homogeneous Time-Resolved Fluorescence (HTRF) was measured using the Envision (Perkin Elmer) at 665 nm and […]. The ratio of fluorescence at 665 nm to 620 nm was used as a readout for IL6 quantification. All samples were processed in duplicate. Readings were normalized to DMSO treated cells and normalized activities were utilized for EC50 calculations using the dose-response log (inhibitor) vs. response —variable slope (four parameters) nonlinear regression feature available in GraphPad Prism 5.0 (or Dotmatics). For EC50 of >10 μM, the percent inhibition at 10 μM is provided.

SMILES | EC50 [1] | EC50 (IL-6 (THP-1 cells)) | inhibition at 10 µM [1] | inhibition at 10 µM (IL-6 (THP-1 cells))
FC1(F)CCN(Cc2cncc(-c3ccc4[nH]nc(-c5cc6c(-c7cccnc7)ccnc6[nH]5)c4n3)c2)C1 [Compound 110, 5-(5-((3,3-Difluoropyrrolidin-1-yl)methyl)pyridin-3-yl)-3-(4-(pyridin-3-yl)-1H-pyrrolo[2,3-b]pyridin-2-yl)-1H-pyrazolo[4,3-b]pyridine] | 0.213 µM | 4.93 µM | – | –
Nc1cncc(-c2ccc3[nH]nc(-c4cc5c(-c6ccncc6)ccnc5[nH]4)c3n2)c1 [Compound 115, 5-(3-(4-(Pyridin-4-yl)-1H-pyrrolo[2,3-b]pyridin-2-yl)-1H-pyrazolo[4,3-b]pyridin-5-yl)pyridin-3-amine] | > 10 µM | > 10 µM | 28.8% | 22.2%
Cc1ccncc1-c1ccc2[nH]nc(-c3cc4c(-c5ccncc5)ccnc4[nH]3)c2n1 [Compound 117, 5-(4-Methylpyridin-3-yl)-3-(4-(pyridin-4-yl)-1H-pyrrolo[2,3-b]pyridin-2-yl)-1H-pyrazolo[4,3-b]pyridine] | 0.6 µM | > 10 µM | – | 45.3%
c1cc(-c2ccnc3[nH]c(-c4n[nH]c5ccc(-c6cncc(CN7CCCCC7)c6)nc45)cc23)ccn1 [Compound 127, 5-(5-(Piperidin-1-ylmethyl)pyridin-3-yl)-3-(4-(pyridin-4-yl)-1H-pyrrolo[2,3-b]pyridin-2-yl)-1H-pyrazolo[4,3-b]pyridine] | > 10 µM | > 10 µM | 0% | 30.2%
c1cc(-c2ccnc3[nH]c(-c4n[nH]c5ccc(-c6cncc(CNCC7CCCC7)c6)nc45)cc23)ccn1 [Compound 137, 1-Cyclopentyl-N-((5-(3-(4-(pyridin-4-yl)-1H-pyrrolo[2,3-b]pyridin-2-yl)-1H-pyrazolo[4,3-b]pyridin-5-yl)pyridin-3-yl)methyl)methanamine] | > 10 µM | > 10 µM | 23.8% | 40.8%
Cc1ccncc1-c1ccc2[nH]nc(-c3cc4c(N5CCCCC5)ccnc4[nH]3)c2n1 [Compound 173, 5-(4-Methylpyridin-3-yl)-3-(4-(piperidin-1-yl)-1H-pyrrolo[2,3-b]pyridin-2-yl)-1H-pyrazolo[4,3-b]pyridine] | > 10 µM | 0.967 µM | 10.6% | –
CN(C)Cc1cncc(-c2ccc3[nH]nc(-c4cc5c(N6CCCCC6)ccnc5[nH]4)c3n2)c1 [Compound 181, N,N-Dimethyl-1-(5-(3-(4-(piperidin-1-yl)-1H-pyrrolo[2,3-b]pyridin-2-yl)-1H-pyrazolo[4,3-b]pyridin-5-yl)pyridin-3-yl)methanamine] | 7.78 µM | > 10 µM | – | 29.2%
c1cc(N2CCCCC2)c2cc(-c3n[nH]c4ccc(-c5cncc(CN6CCCCC6)c5)nc34)[nH]c2n1 [Compound 183, 3-(4-(Piperidin-1-yl)-1H-pyrrolo[2,3-b]pyridin-2-yl)-5-(5-(piperidin-1-ylmethyl)pyridin-3-yl)-1H-pyrazolo[4,3-b]pyridine] | > 10 µM | > 10 µM | 0% | 18.2%
CCCCC(=O)Nc1cncc(-c2ccc3[nH]nc(-c4cc5c(N6CCCCC6)ccnc5[nH]4)c3n2)c1 [Compound 187, N-(5-(3-(4-(Piperidin-1-yl)-1H-pyrrolo[2,3-b]pyridin-2-yl)-1H-pyrazolo[4,3-b]pyridin-5-yl)pyridin-3-yl)pentanamide] | 4.88 µM | 0.34 µM | – | –
FC1(F)CCN(Cc2cncc(-c3ccc4[nH]nc(-c5cc6c(N7CCCCC7)ccnc6[nH]5)c4n3)c2)C1 [Compound 194, 5-(5-((3,3-Difluoropyrrolidin-1-yl)methyl)pyridin-3-yl)-3-(4-(piperidin-1-yl)-1H-pyrrolo[2,3-b]pyridin-2-yl)-1H-pyrazolo[4,3-b]pyridine] | 2.55 µM | 6.95 µM | – | –
c1ncc(-c2ccc3[nH]nc(-c4cc5c(N6CCCCC6)ccnc5[nH]4)c3n2)cn1 [Compound 195, 3-(4-(Piperidin-1-yl)-1H-pyrrolo[2,3-b]pyridin-2-yl)-5-(pyrimidin-5-yl)-1H-pyrazolo[4,3-b]pyridine] | 2.04 µM | > 10 µM | – | 26%
c1ccc(-c2ccc3[nH]nc(-c4cc5c(N6CCCCC6)ccnc5[nH]4)c3n2)nc1 [Compound 196, 3-(4-(Piperidin-1-yl)-1H-pyrrolo[2,3-b]pyridin-2-yl)-5-(pyridin-2-yl)-1H-pyrazolo[4,3-b]pyridine] | 2.05 µM | > 10 µM | – | 46.5%
CC(C)CC(=O)Nc1cncc(-c2ccc3[nH]nc(-c4cc5c(N6CCN(C)CC6)ccnc5[nH]4)c3n2)c1 [Compound 226, 3-Methyl-N-(5-(3-(4-(4-methylpiperazin-1-yl)-1H-pyrrolo[2,3-b]pyridin-2-yl)-1H-pyrazolo[4,3-b]pyridin-5-yl)pyridin-3-yl)butanamide] | 1.76 µM | 3.27 µM | – | –
CN1CCN(c2ccnc3[nH]c(-c4n[nH]c5ccc(-c6cncc(NC(=O)C(C)(C)C)c6)nc45)cc23)CC1 [Compound 232, N-(5-(3-(4-(4-Methylpiperazin-1-yl)-1H-pyrrolo[2,3-b]pyridin-2-yl)-1H-pyrazolo[4,3-b]pyridin-5-yl)pyridin-3-yl)pivalamide] | 0.795 µM | 3.43 µM | – | –
CN1CCN(c2ccnc3[nH]c(-c4n[nH]c5ccc(-c6cncc(NC(=O)c7ccccc7)c6)nc45)cc23)CC1 [Compound 235, N-(5-(3-(4-(4-Methylpiperazin-1-yl)-1H-pyrrolo[2,3-b]pyridin-2-yl)-1H-pyrazolo[4,3-b]pyridin-5-yl)pyridin-3-yl)benzamide] | 3.22 µM | > 10 µM | – | 48.1%
CN1CCN(c2ccnc3[nH]c(-c4n[nH]c5ccc(-c6cncc(NC(=O)CC(C)(C)C)c6)nc45)cc23)CC1 [Compound 240, 3,3-Dimethyl-N-(5-(3-(4-(4-methylpiperazin-1-yl)-1H-pyrrolo[2,3-b]pyridin-2-yl)-1H-pyrazolo[4,3-b]pyridin-5-yl)pyridin-3-yl)butanamide] | 0.67 µM | > 10 µM | – | 43.5%
c1cncc(-c2ccc3[nH]nc(-c4cc5cccnc5[nH]4)c3n2)c1 [Compound 256, 5-(Pyridin-3-yl)-3-(1H-pyrrolo[2,3-b]pyridin-2-yl)-1H-pyrazolo[4,3-b]pyridine] | 0.308 µM | 0.002 µM | – | –
